Literature values as cited in patent publication US20070105793A1, “Compositions and methods using nicotinic acid for treatment of hypercholesterolemia, hyperlipidemia nd cardiovascular disease” (priority 2005, published 2007).

Assays:
[1] = after ingestion
[2] = in vivo
[3] = tested on: β-thromboglobulin; settings: in vivo

Row | Structure (SMILES) | time of release of niacin into the system by hydrolysis [1] | flush [2] | impact on blood sugar [2] | effect on β-thromboglobulin [3]
1 | O=C(O[C@H]1[C@H](OC(=O)c2cccnc2)[C@@H](OC(=O)c2cccnc2)[C@H](OC(=O)c2cccnc2)[C@@H](OC(=O)c2cccnc2)[C@H]1OC(=O)c1cccnc1)c1cccnc1 [IHN, inositol hexanicotinate] | around 10 hours | “zero” flush | no negative impact on blood sugar | –
2 | O=C(O)c1cccnc1 [niacin, nicotinic acid] | – | – | – | does not have a favorable effect on β-thromboglobulin
